What was measured:
Squalene synthase = target: T1, Squalene synthase (Rattus norvegicus, UniProt Q02769); test: In vitro inhibitory activity measured against rat squalene synthase(SQS) enzyme
T1 sequence (Q02769 whole entry): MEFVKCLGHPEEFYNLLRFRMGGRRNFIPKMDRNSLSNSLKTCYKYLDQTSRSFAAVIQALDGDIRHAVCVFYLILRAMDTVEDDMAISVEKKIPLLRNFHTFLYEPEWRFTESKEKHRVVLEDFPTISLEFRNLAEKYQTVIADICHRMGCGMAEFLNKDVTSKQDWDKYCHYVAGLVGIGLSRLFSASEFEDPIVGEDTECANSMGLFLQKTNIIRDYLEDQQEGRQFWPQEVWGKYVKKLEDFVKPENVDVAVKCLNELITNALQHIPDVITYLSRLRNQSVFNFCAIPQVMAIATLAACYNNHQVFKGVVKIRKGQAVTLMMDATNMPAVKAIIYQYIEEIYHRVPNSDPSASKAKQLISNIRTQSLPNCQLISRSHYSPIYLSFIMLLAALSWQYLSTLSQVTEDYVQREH

Rattus norvegicus = species on record: Rattus norvegicus; test: Inhibitory activity of compound was measured against cholesterol biosynthesis from [14C]- acetate by isolated rat hepatocytes; format: functional; details: Hepatocyte

Row | SMILES | IC50 (Squalene synthase) | IC50 (Rattus norvegicus)
1 | C=C(CC[C@]12O[C@H](C(=O)O)[C@@](O)(C(=O)OC)[C@](C(=O)O)(O1)[C@H](O)[C@H]2O)[C@@H](OC(C)=O)[C@H](C)Cc1ccccc1 | 355 nM | –
2 | C=C(CC[C@]12O[C@H](C(=O)OC)[C@@](O)(C(=O)O)[C@](C(=O)OC)(O1)[C@H](OC(=O)/C=C/[C@@H](C)C[C@@H](C)CC)[C@H]2O)[C@@H](OC(C)=O)[C@H](C)Cc1ccccc1 | > 500 nM | –
3 | C=C(CC[C@]12O[C@H](C(=O)O)[C@@](O)(C(=O)O)[C@](C(=O)OC)(O1)[C@H](O)[C@H]2O)[C@@H](OC(C)=O)[C@H](C)Cc1ccccc1 | > 500 nM | –
4 | C=C(CC[C@]12O[C@H](C(=O)O)[C@@](O)(C(=O)O)[C@](C(=O)OC)(O1)[C@H](OC(=O)/C=C/[C@@H](C)C[C@@H](C)CC)[C@H]2O)[C@@H](OC(C)=O)[C@H](C)Cc1ccccc1 | > 500 nM | –
5 | C=C(CC[C@]12O[C@H](C(=O)OC)[C@@](O)(C(=O)OC)[C@](C(=O)O)(O1)[C@H](OC(=O)/C=C/[C@@H](C)C[C@@H](C)CC)[C@H]2O)[C@@H](OC(C)=O)[C@H](C)Cc1ccccc1 | 134 nM | –
6 | C=C(CC[C@]12O[C@H](C(=O)O)[C@@](O)(C(=O)O)[C@](C(=O)O)(O1)[C@H](OC(=O)/C=C/[C@@H](C)C[C@@H](C)CC)[C@H]2O)[C@@H](OC(C)=O)[C@H](C)Cc1ccccc1 [ZARAGOZIC ACIDS A] | – | 39 nM
7 | C=C(CC[C@]12O[C@H](C(=O)OC)[C@@](O)(C(=O)OC)[C@](C(=O)OC)(O1)[C@H](OC(=O)/C=C/[C@@H](C)C[C@@H](C)CC)[C@H]2O)[C@@H](OC(C)=O)[C@H](C)Cc1ccccc1 | > 500 nM | –
8 | C=C(CC[C@]12O[C@H](C(=O)OC)[C@@](O)(C(=O)O)[C@](C(=O)O)(O1)[C@H](O)[C@H]2O)[C@@H](OC(C)=O)[C@H](C)Cc1ccccc1 | 220 nM | –
9 | C=C(CC[C@]12O[C@H](C(=O)O)[C@@](O)(C(=O)OC)[C@](C(=O)OC)(O1)[C@H](OC(=O)/C=C/[C@@H](C)C[C@@H](C)CC)[C@H]2O)[C@@H](OC(C)=O)[C@H](C)Cc1ccccc1 | > 500 nM | –
